Measured values: patent US10392405B2, “Macrocyclic immunomodulators” (CHEMOCENTRYX, INC., priority 2017, dated 2019)

Target: human PD-L1 / Human PD-1 (Homo sapiens (Human), UniProt Q9NZQ7)
Experiment: Enzyme-Linked Immunosorbent Assay (ELISA), PD-1/PD-L1 binding
Conditions: plate-coated human PD-L1, biotinylated human PD-1, absorbance 450 nm
Description: 96 Well plates were coated with 1 μg/mL of human PD-L1 (obtained from R&D) in PBS overnight at 4° C. The wells were then blocked with 2% BSA in PBS (W/V) with 0.05% TWEEN-20 for 1 hour at 37° C. The plates were washed 3 times with PBS/0.05% TWEEN-20 and the compounds were serial diluted (1:5) in dilution medium and added to the ELISA plates. Human PD-1 and biotin 0.3 μg/mL (ACRO Biosystems) were added and incubated for 1 hour at 37° C. then washed 3 times with PBS/0.05% TWEEN-20. A second block was performed with 2% BSA in PBS (W/V)/0.05% TWEEN-20 for 10 min at 37° C. and was washed 3 times with PBS/0.05% TWEEN-20. Streptavidin-HRP was added for 1 hour at 37° C. then washed 3 times with PBS/0.05% TWEEN-20. TMB substrate was added and reacted for 20 min at 37° C. A stop solution (2 N aqueous H2SO4) was added. The absorbance was read at 450 nm using a micro-plate spectrophotometer.
Compounds in Table 1 were prepared by methods as described in the Examples and evaluated according to the assay above. The IC50 of the compounds are presented in Table 1 as follows: • +, 20000 nM≥IC50≥500 nM; • ++, 500 nM≥IC50≥100 nM; • +++, 100 nM>IC50.

Sequence of human PD-L1 / Human PD-1 (Q9NZQ7 19-239): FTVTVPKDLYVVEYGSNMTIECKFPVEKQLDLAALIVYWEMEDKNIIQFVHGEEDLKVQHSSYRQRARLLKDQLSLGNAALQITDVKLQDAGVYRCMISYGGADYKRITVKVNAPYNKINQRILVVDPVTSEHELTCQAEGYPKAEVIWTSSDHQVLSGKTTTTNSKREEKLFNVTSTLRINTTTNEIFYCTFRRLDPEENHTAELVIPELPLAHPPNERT

Row | Structure (SMILES) | IC50 [nM]
1 | Cc1c(COc2cc3c(cc2Cl)CN[C@H](C(=O)O)CCCCNC(=O)c2cc(C#N)cc(c2)CO3)cccc1-c1cccc(OCCCN2CCC(F)CC2)c1C [Compound 1.021] | < 100
2 | Cc1c(COc2cc3c(cc2Cl)CN[C@H](CC(=O)O)CCCCNC(=O)c2cncc(c2)CO3)cccc1-c1ccccc1 [Compound 1.011] | 100 to 500
3 | Cc1c(COc2cc3c(cc2Cl)CN[C@H](C(=O)O)CCCNC(=O)c2cncc(c2)CO3)cccc1-c1ccccc1 [Compound 1.010] | 100 to 500
4 | Cc1c(COc2cc3c(cc2Cl)CN[C@H](C(=O)O)COCCNC(=O)c2cncc(c2)CO3)cccc1-c1ccccc1 [Compound 1.008] | 100 to 500
5 | Cc1c(COc2cc3c(cc2Cl)CN[C@H](C(=O)O)CCCCNC(=O)c2cncc(c2)CO3)cccc1-c1cccc(OCCCN2CCC(O)CC2)c1C [Compound 1.004] | < 100
6 | Cc1c(COc2cc3c(cc2Cl)CNC(CO)CCCCNC(=O)c2cncc(c2)CO3)cccc1-c1cccc(OCCCN2CC[C@@H](O)C2)c1C (single isomer, unassigned) [Compound 1.024] | < 100
7 | Cc1c(COc2cc3c(cc2Cl)CN[C@H](C(=O)O)CCCCNC(=O)c2cncc(c2)CO3)cccc1-c1cccc(OCCCCl)c1C [Compound 1.005] | 500 to 20000
8 | COc1cccc(-c2cccc(COc3cc4c(cc3Cl)CN[C@H](C(=O)O)CCCCNC(=O)c3cncc(c3)CO4)c2C)c1F [Compound 1.001] | < 100
9 | Cc1c(COc2cc3c(cc2Cl)CN[C@H](C(=O)O)CCNC(=O)c2cncc(c2)CO3)cccc1-c1ccccc1 [Compound 1.009] | 500 to 20000
10 | Cc1c(COc2cc3c(cc2Cl)CN[C@@H](CO)C(=O)NCCNC(=O)c2cncc(c2)CO3)cccc1-c1ccccc1 [Compound 1.006] | 100 to 500
11 | O=C1NCCCC[C@@H](C(=O)O)NCc2cc(Cl)c(O[C@H]3CCc4c(-c5ccccc5F)cccc43)cc2OCc2cncc1c2 [Compound 1.007] | 100 to 500
12 | Cc1c(COc2cc3c(cc2Cl)CN[C@H](C(=O)O)CCCCNC(=O)c2cncc(c2)CO3)cccc1-c1ccc2c(c1)OCCO2 [Compound 1.002] | < 100
13 | Cc1c(COc2cc3c(cc2Cl)CN[C@H](C(=O)O)CCCCNC(=O)c2cncc(c2)CO3)cccc1-c1ccccc1 [Compound 1.016] | < 100
14 | Cc1c(COc2cc3c(cc2Cl)CN[C@H](C(=O)O)CCCCNC(=O)c2cncc-3c2)cccc1-c1ccccc1 [Compound 1.013] | 500 to 20000
15 | Cc1c(COc2cc3c(cc2Cl)CN[C@H](C(=O)O)CCCCNC(=O)CCCCO3)cccc1-c1ccccc1 [Compound 1.012] | 100 to 500
16 | Cc1c(COc2cc3c(cc2Cl)CN[C@H](CO)CCCCNC(=O)c2cncc(c2)CO3)cccc1-c1cccc(OCCCN2CCC(F)CC2)c1C [Compound 1.025] | < 100
17 | O=C1NCCCC[C@@H](C(=O)O)NCc2cc(Cl)c(O[C@H]3CCc4c(-c5ccc6c(c5F)OCCO6)cccc43)cc2OCc2cncc1c2 [Compound 1.014] | < 100
18 | Cc1c(COc2cc3c(cc2Cl)CN[C@H](C(=O)O)CCCCNC(=O)c2cncc(c2)CO3)cccc1-c1cccc(OCCCN2CC(O)C2)c1C [Compound 1.020] | < 100
19 | Cc1c(COc2cc3c(cc2Cl)CN[C@H](C(=O)O)CCCCNC(=O)c2cncc(c2)CO3)cccc1-c1ccccc1F [Compound 1.003] | < 100
